Article PMC11002875, “Linking triphenylphosphonium cation to a bicyclic hydroquinone improves their antiplatelet effect via the regulation of mitochondrial function” (Redox Biology, 2024)

Key:
[1] = test system: platelet-rich plasma; assay: Platelet activation markers in PRP (flow cytometry); assay type: cell-based, Human; details: collagen 2 μg/mL
Procedure: Platelet aggregation in platelet-rich plasma. The blood sample was obtained from voluntary donors (10 days without antiplatelet medication) who agreed to participate after signing informed consent (Scientific Ethics Committee of the University of Talca N° 04–2022). Venous blood was collected by phlebotomy into 3.2% sodium citrate tubes. The tubes were centrifuged at 250 g for 12 min to obtain PRP. After reserving the PRP, the tubes were centrifuged again at 900 g for 10 min to obtain platelet-poor plasma (PPP). For the aggregation reaction, PRP was adjusted to 200-250 × 10^6 platelets/mL with PPP [[63], [64], [65]]. Platelet counting was performed in a counter (Mindray BC-3000 Plus hematology counter, Japan). The samples were preincubated with the compounds under study for 5 min at 37 °C in the aggregometer (Agg RAM- Helena Biosciences). Aggregation was initiated with collagen 2 μg/mL and the reaction was evaluated for 5 min at 37 °C in shaking at 1000 rpm.
Platelet activation markers. […] Aliquots of the reaction were then collected and labeled separately with human antibodies (BD Biosciences, San José, CA, USA) for P-selectin, CD63, activated GPIIb/IIIa (PAC-1), and fibrinogen to assess the levels of each marker on the platelet membrane. The sample was acquired using the BD Facs Lyric flow cytometer (BD Biosciences, USA). […]

[2] = test system: Washed platelets; assay: Platelet activation markers in washed platelets (flow cytometry); assay type: cell-based, Human; details: collagen 2 μg/mL; compounds 1, 5 and 10 μM; vs activated control
Procedure: Human platelet purification. The blood sample was obtained from voluntary donors (10 days without antiplatelet medication) who agreed to participate after signing informed consent (Scientific Ethics Committee of the University of Talca N° 04–2022). Briefly, blood anticoagulated with acid-citrate-dextrose (ACD) was obtained in a 4:1 v/v ratio. The sample was centrifuged for 12 min at 250 g to obtain platelet-rich plasma (PRP). Subsequently, the PRP was centrifuged for 8 min at 900 g to obtain the platelet pellet. The plasma supernatant was removed, and the platelets were resuspended in Tyrodes buffer without calcium plus ACD in a ratio of 5:1 v/v. The platelets were centrifuged once more for 8 min at 900 g and the pellet was resuspended in Tyrodes buffer without calcium. Finally, the platelets were counted (Mindray BC-3000 Plus hematology counter, Japan), adjusted to the desired concentration, and used within 3 h.
Platelet activation markers. Washed platelets (200-250 × 10^6 platelets/mL) were incubated with the compounds (1, 5 and 10 μM), then activated with collagen 2 μg/mL and incubated for 5 min at 37 °C. Aliquots of the reaction were then collected and labeled separately with human antibodies (BD Biosciences, San José, CA, USA) for P-selectin, CD63, activated GPIIb/IIIa (PAC-1), and fibrinogen to assess the levels of each marker on the platelet membrane. The sample was acquired using the BD Facs Lyric flow cytometer (BD Biosciences, USA). Representative dot plots are available in Supplementary Figures 8-11 and 20-23. In the case of the activation markers P-selectin and bound fibrinogen in PRP, the same procedure for washed platelets was performed with representative dot plots available in Supplementary Figs. 15 and 16. The platelet population was identified with anti-CD61-PE or anti-CD61-FITC (BD Biosciences, San José, CA, USA).

Cc1c(C)c(O)c2c(c1O)C(=O)C(CCCC[P+](c1ccccc1)(c1ccccc1)c1ccccc1)=CC2(C)C.[Br-] [NP4, (4-(5,8-dihydroxy-4,4,6,7-tetramethyl-1-oxo-1,4-dihydronaphthalen-2-yl)butyl)triphenyl phosphonium bromide]
Bound fibrinogen in platelet-rich plasma [1]: significant decrease | P-selectin exposure in platelet-rich plasma [1]: significant decrease | Bound fibrinogen platelet activation marker [2]: at the 10 μM concentration was able to significantly decrease | CD63 platelet activation marker [2]: at the 10 μM concentration was able to significantly decrease | P-selectin platelet activation marker [2]: at the 10 μM concentration was able to significantly decrease | PAC-1 (activated GPIIb/IIIa) platelet activation marker [2]: at the 10 μM concentration was able to significantly decrease
